Patent publication US20260041677A1, “COMPOSITIONS AND METHODS FOR TREATING ADENOID CYSTIC CARCINOMA” (ELEVAR THERAPEUTICS, INC., priority 2022, published 2026)
Where “and” joins values, the source holds several entries; their conditions need not be identical. Equal values may be shown once.

System: recurrent or metastatic (R/M) adenoid cystic carcinoma (ACC)
Assay: Phase 2 single-arm study of rivoceranib in R/M ACC: response, DoR, PFS, TTP per RECIST V1.1
Type: in vivo, human
Settings: for estimated PFS rate at 9 months: efficacy evaluable
Text: Overall design: An ongoing Phase 2, multicenter, open-label, single-arm study was designed to evaluate the efficacy and safety of rivoceranib in patients with recurrent or metastatic (R/M) adenoid cystic carcinoma (ACC) of all anatomic sites of origin. The study was composed of an initial screening phase (up to 28 days), a treatment phase, and a follow-up phase.
Objectives: Primary objectives were to evaluate safety & tolerability, efficacy by objective response rate (ORR), best overall response (BOR), time to response, duration of response, disease control rate, and duration of disease control. Secondary objectives were to evaluate efficacy as measured by overall survival, progression-free survival and event-free survival. The primary efficacy endpoint was the ORR, defined as the proportion of patients who achieved confirmed complete response (CR) or partial response (PR) per Response Evaluation Criteria in Solid Tumors (RECIST) Version 1.1 (V1.1). The secondary efficacy endpoints were duration of response (DoR) assessed by the investigator and a blinded independent review committee (BIRC), progression-free survival (PFS) assessed at 6 months, 12 months, and 2 years by investigator and BIRC, Time to Progression (TTP) assessed by investigator and BIRC, and overall survival (OS) assessed at 1 and 2 years. Exploratory efficacy endpoints include ORR per CHOI response criteria (based on the journal article, Choi et al., Correlation of computed tomography and positron emission tomography in patients with metastatic gastrointestinal stromal tumor treated at a single institution with imatinib mesylate: proposal of new computed tomography response criteria. J Clin Oncol. 2007; 25(13): 1753-1759) by a blinded independent review […] (BIRC) and disease control rate (DCR) per RECIST V1.1 by Investigator and BIRC. Except for CHOI response criteria, all response endpoints were assessed per RECIST V1.1 by Investigator and BIRC.
Patients: The study was conducted at 11 study sites in the USA and South Korea. A total of 80 patients were enrolled and received at least 1 dose of study drug (rivoceranib). Fifty-three patients were enrolled in the USA and 27 patients were enrolled in Korea. Eligible patients were 18 years or older and were required to have histologically or cytologically confirmed R/M ACC of any anatomic location not amenable to curative surgery or radiotherapy. Due to the indolent nature of the disease, patients were required to have evidence of disease progression by RECIST V1.1 within the 6 months prior to study entry, evidenced by: ≥20% increase in radiologically or clinically measurable lesions or appearance of new lesions. Patients were required to have at least 1 measurable target lesion by RECIST V1.1. There were no restrictions on prior systemic therapies. Patients were permitted to have prior VEGFR TKI exposure if dosage was discontinued within 5 half-lives prior to rivoceranib treatment. The patients were permitted if they have an Eastern Cooperative Oncology Group (ECOG) performance status of 0 or 1. Patients with treated central nervous system metastases were permitted if they were stable for four weeks prior to study treatment. Eligible patients had documented primary diagnosis of solid tumor cancer of ACC for which anti-VEGFR-2 targeted therapy could be applicable. The majority of patients had primary tumors in the major (33.8%) or minor (58.8%) salivary glands; 6 patients (7.5%) had primary tumors in other locations: lung, breast, trachea, Cowper's gland, intracranial temporal lobe and lymph node. Median time from original ACC diagnosis was 69.62 months. The majority of patients (92.5%) had metastatic disease.
Dose determination: Enrolled patients initiated treatment with rivoceranib 700 mg daily (QD). Up to 3 levels of dose reduction for toxicity were permitted: 500 mg QD, 300 mg QD and 200 mg QD. Patients received treatment until disease progression, unacceptable toxicity, death or withdrawal of consent to treatment. […]

[1] = RECIST V1.1, BIRC, 700 mg QD start
[2] = RECIST V1.1, BIRC, Total N = 73, 700 mg QD start
[3] = RECIST V1.1, BIRC, Total N = 73, Kaplan-Meier, 700 mg QD start
[4] = RECIST V1.1, BIRC, VEGFRi-naïve N = 60, 700 mg QD start
[5] = RECIST V1.1, BIRC, VEGFRi-naïve N = 60, Kaplan-Meier, 700 mg QD start
[6] = RECIST V1.1, BIRC, VEGFRi-treated N = 13, 700 mg QD start
[7] = RECIST V1.1, BIRC, VEGFRi-treated N = 13, Kaplan-Meier, 700 mg QD start
[8] = RECIST V1.1, Investigator, 700 mg QD start
[9] = RECIST V1.1, Investigator, Systemic therapy-naïve N = 29, 700 mg QD start
[10] = RECIST V1.1, Investigator, Systemic therapy-treated N = 44, 700 mg QD start
[11] = RECIST V1.1, Investigator, Total N = 73, 700 mg QD start
[12] = RECIST V1.1, Investigator, Total N = 73, Kaplan-Meier, 700 mg QD start
[13] = RECIST V1.1, Investigator, VEGFRi-naïve N = 60, 700 mg QD start
[14] = RECIST V1.1, Investigator, VEGFRi-naïve N = 60, Kaplan-Meier, 700 mg QD start
[15] = RECIST V1.1, Investigator, VEGFRi-treated N = 13, 700 mg QD start
[16] = RECIST V1.1, Investigator, patients with ≥20% pre-study increase in lesions, N = 51
[17] = confirmed objective response by Investigator
[18] = within the 19.5-month follow-up, N = 80

SMILES: N#CC1(c2ccc(NC(=O)c3cccnc3NCc3ccncc3)cc2)CCCC1 [Rivoceranib, N-[4-(1-cyanocyclopentyl)phenyl]-2-{[(pyridin-4-yl)methyl]amino}pyridine-3-carboxamide]
- remaining (non-ORR) patients who had a tumor size reduction (700 mg QD start): about 85%
- median PFS (Kaplan-Meier, patients previously treated with systemic therapy, 700 mg QD start): 8.9 months
- median PFS (Kaplan-Meier, patients without any prior systemic therapy, 700 mg QD start): 13.7 months
- ORR based on patients assessed as responders by either Investigator or BIRC (RECIST V1.1, 15 out of 73 patients, 700 mg QD start): 20.5%
- estimated TTP rate at 6 months [1]: 80.7%
- estimated TTP rate at 9 months [1]: 57.3%
- estimated TTP rate at 12 months [1]: 41%
- BOR: Complete Response [2]: 0%
- BOR: Not Evaluable [2]: 1 (1.4) %
- BOR: Partial Response [2]: 7 (9.6) %
- BOR: Progressive Disease [2]: 5.5% and 4 (5.5) %
- BOR: Stable Disease [2]: 61 (83.6) %
- DCR (disease control rate, CR, PR or SD ≥3 months) [2]: 65.8% and 64.4% and 48 (65.8) %
- Median TTP (95% CI) [2]: 9.3 (8.5-13.6) months
- ORR (objective response rate) [2]: 9.6% and 7 (9.6) %
- PFS landmark 6-months, % (95% CI) [2]: 80.8 (68.5-88.6) %
- PFS landmark 12-months, % (95% CI) [2]: 38.2 (25.0-51.3) %
- DoR 25th percentile [3]: 5.5 months
- DoR 75th percentile [3]: 8.3 months
- DoR Median (95% CI) [3]: 7.2 months and 7.2 (3.5, 8.4) months
- Median PFS (95% CI) [3]: 9.2 months and 9.2 (8.0, 12.9) months
- BOR: Complete Response [4]: 0%
- BOR: Not Evaluable [4]: 1 (1.7) %
- BOR: Partial Response [4]: 5 (8.3) %
- BOR: Progressive Disease [4]: 3 (5.0) %
- BOR: Stable Disease [4]: 51 (85) %
- DCR (disease control rate, CR, PR or SD ≥3 months) [4]: 39 (65.0) %
- Median PFS (95% CI) [4]: 9.3 (8.0-13.7) months
- Median TTP (95% CI) [4]: 10.8 (8.5-13.8) months
- ORR (objective response rate) [4]: 8.5% and 5 (8.3) %
- PFS landmark 6-months, % (95% CI) [4]: 80.3 (66.3-88.9) %
- PFS landmark 12-months, % (95% CI) [4]: 40.4 (25.6-54.6) %
- DoR 25th percentile [5]: 5.4 months
- DoR 75th percentile [5]: 8.3 months
- BOR: Complete Response [6]: 0%
- BOR: Not Evaluable [6]: 0%
- BOR: Partial Response [6]: 2 (15.4) %
- BOR: Progressive Disease [6]: 1 (7.7) %
- BOR: Stable Disease [6]: 10 (76.9) %
- DCR (disease control rate, CR, PR or SD ≥3 months) [6]: 9 (69.2) %
- Median PFS (95% CI) [6]: 8.9 (5.3-12.9) months
- Median TTP (95% CI) [6]: 8.9 (5.3-12.9) months
- PFS landmark 6-months, % (95% CI) [6]: 83.1 (47.2-95.5) %
- PFS landmark 12-months, % (95% CI) [6]: 26.0 (4.3-56.2) %
- DoR 25th percentile [7]: 5.5 months
- DoR 75th percentile [7]: 7.1 months
- DoR Median (95% CI) [7]: 6.3 (5.5, 7.1) months
- estimated PFS rate at 9 months [1]: 53.5%
- estimated TTP rate at 6 months [8]: 76.2%
- estimated TTP rate at 9 months [8]: 57.0%
- estimated TTP rate at 12 months [8]: 43.7%
- Median time to response (RECIST V1.1, Investigator, 11 responders): 57.0 days
- BOR: Complete Response [9]: 0%
- BOR: Not Evaluable [9]: 0%
- BOR: Partial Response [9]: (20.7) %
- BOR: Progressive Disease [9]: (10.3) %
- BOR: Stable Disease [9]: (69.0) %
- DoR 25th percentile [9]: 7.4 months
- DoR 75th percentile [9]: 14.9 months
- DoR Median [9]: 13.5 months
- BOR: Complete Response [10]: 0%
- BOR: Not Evaluable [10]: 0%
- BOR: Partial Response [10]: (11.4) %
- BOR: Progressive Disease [10]: (11.4) %
- BOR: Stable Disease [10]: (77.3) %
- DoR 25th percentile [10]: 14.6 months
- DoR 75th percentile [10]: 17.3 months
- DoR Median [10]: 17.3 months
- BOR: Complete Response [11]: 0%
- BOR: Not Evaluable [11]: 0%
- Median TTP (95% CI) [11]: 9.1 (8.5-13.8) months
- PFS landmark 6-months, % (95% CI) [11]: 76.3 (64.2-84.8) %
- PFS landmark 12-months, % (95% CI) [11]: 39.7 (27.4-51.6) %
- DoR 25th percentile [12]: 11.9 months
- DoR 75th percentile [12]: 17.3 months
- DoR Median (95% CI) [12]: 14.9 months and 14.9 (4.9, 17.3) months
- Median PFS (95% CI) [12]: 9.0 (7.5-12.8) months
- BOR: Complete Response [13]: 0%
- BOR: Not Evaluable [13]: 0%
- BOR: Partial Response [13]: 11 (18.3) %
- BOR: Progressive Disease [13]: 6 (10.0) %
- BOR: Stable Disease [13]: 43 (71.7) %
- DCR (disease control rate, CR, PR or SD ≥3 months) [13]: 37 (61.7) %
- Median PFS (95% CI) [13]: 9.0 (7.3-12.8) months
- Median TTP (95% CI) [13]: 9.0 (7.3-13.5) months
- ORR (objective response rate) [13]: 11 (18.3) %
- PFS landmark 6-months, % (95% CI) [13]: 74.5 (60.7-84.1) %
- PFS landmark 12-months, % (95% CI) [13]: 38.7 (25.5-51.8) %
- DoR 25th percentile [14]: 11.9 months
- DoR 75th percentile [14]: 17.3 months
- DoR Median (95% CI) [14]: 14.9 (4.9, 17.3) months
- BOR: Complete Response [15]: 0%
- BOR: Not Evaluable [15]: 0%
- BOR: Partial Response [15]: 0%
- BOR: Progressive Disease [15]: 2 (15.4) %
- BOR: Stable Disease [15]: 11 (84.6) %
- DCR (disease control rate, CR, PR or SD ≥3 months) [15]: 10 (76.9) %
- Median PFS (95% CI) [15]: 10.6 (7.1-17.7) months
- Median TTP (95% CI) [15]: 16.4 (8.9-19.1) months
- ORR (objective response rate) [15]: 0%
- PFS landmark 6-months, % (95% CI) [15]: 84.6 (51.2-95.9) %
- PFS landmark 12-months, % (95% CI) [15]: 43.0 (13.8-69.8) %
- estimated PFS rate at 9 months [8]: 53.6%
- Maximum Change in SOT During the first 6 Months on Treatment with Rivoceranib, Mean [16]: −9.9 mm
- Maximum Change in SOT During the first 6 Months on Treatment with Rivoceranib, Median [16]: −7.0 mm
- Maximum Change in SOT at Any Time on Treatment, Mean [16]: −10.4 mm
- Maximum Change in SOT at Any Time on Treatment, Median [16]: −8.0 mm
- patients with initial response observed at 100 mg [17]: 1 patient
- patients with initial response observed at 200 mg [17]: 1.3%
- patients with initial response observed at 300 mg [17]: 4.1%
- patients with initial response observed at 500 mg [17]: 5.5%
- patients with initial response observed at 700 mg [17]: 2.7%
- patients who died due to disease progression or cancer despite treatment [18]: ≥ 21.3%
- patients who had disease progression despite treatment [18]: 48.5%
